How the values were obtained:
Assay in all cases: Test C flooded paddy test
Format in all cases: in vivo
[1] = system: smallflower flatsedge (Cyperus difformis); details: for Flatsedge plant response rating: Flooded Paddy, scale 0 to 100, 0 no effect, 100 complete control; for Plant response rating, Flatsedge / Plant response rating (scale 0 to 100), Flatsedge: flooded paddy test; for Plant response rating, Flatsedge: scale 0 to 100 (0 no effect, 100 complete control)
Procedure, shortened: (§1)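 Ratings come from visual comparison with control plants after 12 to 14 days in the greenhouse. Each species was at the 2-leaf stage when the flooded paddy was treated. Scores run from 0, meaning no effect, to 100, meaning complete control.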

[2] = system: barnyardgrass (Echinochloa crus-galli); details: for Barnyardgrass plant response rating: scale 0 to 100, 0 no effect, 100 complete control
Procedure, shortened: as §1

[3] = system: duck salad (Heteranthera limosa); details: for Ducksalad plant response rating: scale 0 to 100, 0 no effect, 100 complete control
Procedure, shortened: as §1

[4] = Flooded Paddy, Rate 500 g/ha, scale 0 to 100
[5] = flooded paddy test, Rate 62 g/ha, scale 0 to 100 (0 no effect, 100 complete control)
[6] = flooded paddy test, Rate 125 g/ha, scale 0 to 100 (0 no effect, 100 complete control)
[7] = Rate 16 g/ha, visually evaluated after 12 to 14 days, 0 = no effect, 100 = complete control
[8] = flooded paddy test, Rate 16 g/ha, visually evaluated after 12 to 14 days, 0 = no effect, 100 = complete control
[9] = flooded paddy test, under head Rate 16 g/ha, (own rate not given), after 12 to 14 days

Row | Compound | Flatsedge plant response rating ([1]; Rate 250 g/ha) | Flatsedge plant response rating ([1]; Rate 500 g/ha) | Plant response rating, Flatsedge ([1]; Rate 62 g/ha) | Plant response rating, Flatsedge ([1]; Rate 125 g/ha) | Plant response rating, Barnyardgrass [2, 4] | Barnyardgrass plant response rating ([2]; Flooded Paddy, Rate 250 g/ha) | Plant response rating, Barnyardgrass [2, 5] | Plant response rating, Barnyardgrass [2, 6] | Plant response rating, Ducksalad [3, 4] | Ducksalad plant response rating ([3]; Flooded Paddy, Rate 250 g/ha) | Plant response rating, Ducksalad [3, 5] | Plant response rating, Ducksalad [3, 6] | Plant response rating (scale 0 to 100), Flatsedge [1, 7] | Plant response rating (scale 0 to 100), Barnyardgrass [2, 8] | Plant response rating (scale 0 to 100), Ducksalad [3, 8] | Plant response rating (scale 0 to 100), Flatsedge ([1]; under head Rate 16 g/ha, (own rate not given), after 12 to 14 days) | Barnyardgrass plant response rating ([2]; Flooded Paddy, Rate 500 g/ha) | Plant response rating (scale 0 to 100), Barnyardgrass [2, 9] | Ducksalad plant response rating ([3]; Flooded Paddy, Rate 500 g/ha) | Plant response rating (scale 0 to 100), Ducksalad [3, 9]
1 | CC1CCc2cn(C3CCN(c4cccc(C(F)(F)F)c4)C3=O)nc21 (stereo not drawn) [Compound 11] | 90 | 100 | 90 | 90 | 80 | 30 | 0 | 20 | 30 | 20 | 0 | 20 | – | – | – | – | – | – | – | –
2 | CC(C)(C)c1ccn(C2SCN(c3cccc(C(F)(F)F)c3)C2=O)n1 (stereo not drawn) [Compound 1] | 100 | 100 | 90 | 100 | 100 | 30 | 20 | 80 | 100 | 90 | 60 | 90 | – | – | – | – | – | – | – | –
3 | CC1(C)CCc2cn(C3CCN(c4cccc(C(F)(F)F)c4)C3=O)nc21 (stereo not drawn) [Compound 10] | 100 | 100 | 50 | 80 | 80 | 40 | 0 | 0 | 90 | 90 | 0 | 20 | 30 | 0 | 0 | – | – | – | – | –
4 | CCC(C)c1ccn(C2OCN(c3cccc(C(F)(F)F)c3)C2=O)n1 (stereo not drawn) [Compound 24] | 100 | 100 | 100 | 100 | – | 100 | 100 | 100 | – | 100 | 60 | 100 | 100 | 100 | 50 | 100 | 100 | 80 | 100 | 50

— patent publication US7138361B2, “Herbicidal heterocycles” (E. I. du Pont de Nemours and Company, priority 2000, dated 2006)
